Data published in patent publication US20240261410A1, “SODIUM DE[…] ACID AS […]” (priority 2023, published 2024).

Key:
[1] = test system: Mycobacterium smegmatis mc^2 155; experiment: MIC and MBIC (growth and biofilm formation), two-fold broth dilution in TYG; format: cell-based
Procedure: MICs and MBICs were evaluated using two-fold broth dilution series in 96-well round-bottom microtiter plates. […]
Two-fold dilutions were then prepared as follows. […] The box was placed into the 37° C. incubator and microbial growth and biofilm formation were assessed visually on a daily basis for six days. […]

[2] = DOSY-NMR, 10 mM in D2O, 600 MHz, not a partition coefficient
Procedure: 1H and 2D NMR (COSY, HSQC, and HMBC) spectra were recorded on a Bruker Avance III 500 MHz spectrometer operating at 125 MHz. The spectra were obtained in methanol-d4 or DMSO-d6 using residual solvent signals as internal standards. Diffusion orientated (DOSY) NMR spectra were obtained on a JEOL 600 mHz instrument using DOSY pulse sequences provide by the manufacturer.
The diffusion constants (log D) of residual deuterated water (HDO) and methanol (MeOD) are also indicated on the graphs. The corresponding ^1H-NMR spectra are shown above the graphs. All spectra were acquired at 600 MHz.

[3] = test system: Bacillus subtilis ATCC 6633; experiment: MIC, two-fold broth dilution in TYG, 96-well microtiter plates; format: cell-based; settings: TunR2 in DMSO, TunR2-DOC and DOC in water, table prints no unit (dilution series in μg/mL)
Procedure: (§1) Seed cultures of Bacillus subtilis ATCC 6633, Escherichia coli ATCC 9637, Mycobacterium smegmatis mc^2 155, and Saccharomyces cerevisiae NRRL Y-139 were started from freezer stocks and grown in tryptone-yeast extract-glucose (TYG) broth for 24 hours at 27° C. Microbial dilutions were prepared as follows. Sterile PBS (phosphate buffer saline, 1 mL) was added to a glass tube using a disposable 10 mL pipet. Using a sterile loop microbial material was transferred from an agar plate, and the turbidity was measured and adjusted to 1.0 Macfarlane units. The inoculum dilution was then prepared. To a sterile 50 mL blue-capped centrifuge tube, 50 mL TYG stock media were added using a 25 mL disposable pipet. To this tube was then added 1 mL of the microbial dilution, and the contents were mixed by vortexing (this will give a 1:50 v/v dilution). This 1:50 v/v dilution inoculum was dispensed using a multichannel pipet, adding 100 μL to each well of a 96-well round-bottom microtiter plate.
(§2) MICs and MBICs were evaluated using two-fold broth dilution series in 96-well round-bottom microtiter plates. Diluted solutions were prepared by adding 20 μl of the 1 mg/mL stock of the TunR2 to 1.980 mL of TYG in a 15 mL blue-capped centrifuge tube for a total of 2 mL volume at 10 μg/mL. […] A blank of 20 μl dimethyl sulfoxide (DMSO) up to 2 mL TYG was also included. The microtiter plates were then set up as follows. To wells 1, 2, and 3 of the first row (A row) of the microtiter plate 200 μl of TYG media control were added. To wells 4, 5, and 6 in row A of the plate 200 μl TYG+TunR2 (10 μg/mL) were added. To wells 7, 8, and 9 in row A of the plate, 200 μl TYG+DOC (5 μg/mL) were added. And to wells 10, 11, and 12 in row A of the plate, 200 μl TYG+TunR2 (10 μg/mL)+DOC (5 μg/mL) were added. To the remaining wells of the microtiter plate 100 μl of the sterile TYG liquid media were added.
(§3) Two-fold dilutions were then prepared as follows. […] The box was placed into the 37° C. incubator and microbial growth and biofilm formation were assessed visually on a daily basis for six days.

[4] = test system: Saccharomyces cerevisiae NRRL Y-139; experiment: as above; format: cell-based; settings: TunR2 in DMSO, TunR2-DOC and DOC in water, table prints no unit (dilution series in μg/mL)
Procedure: as §1, §2, §3

[5] = test system: Escherichia coli ATCC 9637; experiment: as above; format: cell-based; settings: TunR2 in DMSO, TunR2-DOC and DOC in water, table prints no unit (dilution series in μg/mL)
Procedure: as §1, §2, §3

[6] = Stability of the aqueous DOC solutions on standing at room temperature; format: physicochemical; settings: 18 hours at room temperature
Procedure: (§4) The modified tunicamycin TunR2 solid powder (8 mg, […]) and DOC solid powder (4.4 mg, […]) were vortexed together in an equimolar ratio, and was prepared in water for injection (3 mL) and stirred until dissolved. If needed, the pH was adjusted to 5.8 by addition of 10% acetic acid. The TunR2 was initially insoluble under these conditions, but began to dissolve after 5 minutes at 50° C. (in the range of about 50° C. to about 70° C.) and was completely soluble after 10 minutes at this temperature (FIG. 6A to FIG. 6C). […] The native tunicamycin solution became somewhat hazy after this time, but was readily clarified on gentle re-warming.
(§5) The present work undertaken to develop a water-soluble TunR2 formulation solubilized by sodium deoxycholate to reduce the solvent toxicity and to improve the physiochemical properties. Solutions were prepared either by mixing together TunR2 and DOC powders in equimolar portions and adding water, or by preparing a DOC aqueous stock solution and adding this directly to the TunR2. At 10 mg/mL, the TunR2 was initially insoluble under these conditions, but began to dissolve after 5 minutes at 50° C. and was completely soluble after 10 minutes at this temperature. […] The native tunicamycin solution became somewhat hazy after this time, but was readily clarify on gentle re-warming.

[7] = Solubilization in water with sodium deoxycholate; format: physicochemical; settings: at 50° C., same conditions for tunicamycin and TunR1
Procedure: as §4, §5

| Substance | effect of DOC control in the MIC assays ([1]; DOC at the same concentration as the TunR2) | Minimal Inhibitory Concentration ([1]; first figure of cell MIC/MBIC, TunR2 in DMSO, TunR2-DOC and DOC in water, unit not given) | diffusion constant (log D) [2] | Minimal Inhibitory Concentration [3] | Minimal Inhibitory Concentration [4] | Minimal Inhibitory Concentration [5] | state of aqueous DOC solution after cooling and standing [6] | time to complete dissolution in water with DOC ([7]; 8 mg TunR2 + 4.4 mg DOC in 3 mL water for injection) [min] | time to complete dissolution in water with DOC ([7]; at 10 mg/mL, equimolar DOC) [min] |
| --- | --- | --- | --- | --- | --- | --- | --- | --- | --- |
| 5β-cholan-24-oic acid-3α, 12α-diol sodium salt [DOC] | no effect | >2.5 | −9.66 | >2.5 | >2.5 | >2.5 | – | – | – |
| tunicamycin | – | – | – | – | – | – | somewhat hazy | ≤ 5 | ≤ 5 |
